“And” between values parts separate entries of the source, which are not always exact repeats. Identical values can stand only once.

The values below come from article PMC5516028, “Molecular tools for GABAA receptors: High affinity ligands for β1-containing subtypes” (Scientific Reports, 2017).

The target in assay [1] is T1, γ1 subunit containing GABAA receptors (Rattus norvegicus, UniProt P15431+P62813).
T1 construct: expressed in transfected cells; host or cells: Xenopus laevis oocytes, mRNA injected
T1 sequence (P62813 28-455): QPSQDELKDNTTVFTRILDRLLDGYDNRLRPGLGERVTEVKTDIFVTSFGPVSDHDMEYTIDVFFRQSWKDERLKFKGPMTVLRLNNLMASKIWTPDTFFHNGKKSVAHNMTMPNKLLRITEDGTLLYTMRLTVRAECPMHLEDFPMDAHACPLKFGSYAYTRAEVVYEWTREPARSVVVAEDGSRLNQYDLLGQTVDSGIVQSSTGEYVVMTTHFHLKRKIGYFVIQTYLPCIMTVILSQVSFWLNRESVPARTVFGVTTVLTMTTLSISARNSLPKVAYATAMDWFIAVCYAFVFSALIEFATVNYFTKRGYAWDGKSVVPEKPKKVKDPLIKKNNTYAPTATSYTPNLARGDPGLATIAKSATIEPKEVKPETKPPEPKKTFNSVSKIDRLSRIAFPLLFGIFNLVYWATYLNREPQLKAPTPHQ
T1 sequence (P15431 26-474): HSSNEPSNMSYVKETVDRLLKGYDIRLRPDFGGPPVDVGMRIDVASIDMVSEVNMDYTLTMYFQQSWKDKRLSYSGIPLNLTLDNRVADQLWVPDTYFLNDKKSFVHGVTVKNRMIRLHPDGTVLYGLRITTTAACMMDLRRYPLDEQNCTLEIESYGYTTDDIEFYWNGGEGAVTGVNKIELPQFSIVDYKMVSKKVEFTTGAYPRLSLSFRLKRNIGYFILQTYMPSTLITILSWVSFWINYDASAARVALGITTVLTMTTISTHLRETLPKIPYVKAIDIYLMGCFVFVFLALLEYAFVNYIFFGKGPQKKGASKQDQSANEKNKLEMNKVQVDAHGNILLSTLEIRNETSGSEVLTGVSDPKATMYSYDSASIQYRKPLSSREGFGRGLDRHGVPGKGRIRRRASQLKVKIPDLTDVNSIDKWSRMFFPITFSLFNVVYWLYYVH
T1 sequence (P23574 36-465 partner limits assumed): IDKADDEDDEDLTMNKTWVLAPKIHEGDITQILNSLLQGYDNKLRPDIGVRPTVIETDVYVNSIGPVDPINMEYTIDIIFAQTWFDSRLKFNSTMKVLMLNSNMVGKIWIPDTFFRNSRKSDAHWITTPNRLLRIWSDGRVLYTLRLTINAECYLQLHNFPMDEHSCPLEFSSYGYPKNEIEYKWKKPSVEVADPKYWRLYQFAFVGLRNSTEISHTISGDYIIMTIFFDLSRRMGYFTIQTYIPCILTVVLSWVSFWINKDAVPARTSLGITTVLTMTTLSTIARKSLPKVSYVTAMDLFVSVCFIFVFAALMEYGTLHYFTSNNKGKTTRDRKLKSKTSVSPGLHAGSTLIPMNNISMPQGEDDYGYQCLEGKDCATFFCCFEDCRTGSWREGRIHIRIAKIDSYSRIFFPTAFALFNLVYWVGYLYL
Put plainly: Control of γ1 subunit incorporation with triazolam. It is filed as cell-based. The conditions noted are these: 10 µM. Here is the method:
(§1) For electrophysiological recordings, oocytes were placed on a nylon-grid in a bath of Ca^2+-containing NDE solution medium [96 mM NaCl, 5 mM HEPES-NaOH (pH 7.5), 2 mM KCl, 1 mM MgCl2, 1.8 mM CaCl2]. For current measurements the oocytes were impaled with two microelectrodes (1–3 MΩ resistance) filled with 2 M KCl. […] The EC3–5 was determined at the beginning of each experiment. Drugs were diluted into NDE from DMSO-solutions resulting in a final concentration of 0.1% DMSO perfusing the oocytes. […] Between two applications, oocytes were washed in NDE for up to 15 min to ensure full recovery from desensitization. […] All recordings were performed at room temperature at a holding potential of […] using a Dagan TEV-200A two-electrode voltage clamp (Dagan Corporation, Mineapolis, MN). Data were digitized, recorded and measured using an Axon Digidata- 1550 low-noise data acquisition system (Axon Instruments, Union City, CA).

The test system of assay [2] is γ2 subunit containing GABAA receptors. Put plainly: Control of γ2 subunit incorporation with diazepam. The assay is classed as cell-based, rat. As to conditions: 1 µM. As to the method:
as §1

The subject of assay [3] is δ subunit containing GABAA receptors. Kind of assay: Control of δ subunit incorporation with DS2. The assay is classed as cell-based, rat. The conditions noted are these: 1 µM. Here is the method:
as §1, with “desensitization. Maximum currents measured in mRNA injected oocytes were in the microampere range for all subtypes of GABAA receptors. […] In order to monitor receptor composition, diazepam (~200% modulation at 1 µM) was used to investigate the incorporation of the γ2[25] subunit, DS2 (>800% modulation at 1 µM) for the incorporation of the δ subunit and triazolam (>200% modulation at 10 µM) for the γ1 incorporation.” for “desensitization.”, “CA). […]” for “CA).”

The target of assay [4] is benzodiazepine binding site, rat cerebellum membranes. Put plainly: [3H]flunitrazepam saturation binding, rat cerebellar membranes. The conditions noted are these: n = 3, read-out: equilibrium binding constant KD.
Description: In brief, membrane pellets were incubated for 90 min at 4 °C in a total of 500 µL of a solution containing 50 mM Tris/citrate buffer, pH = 7.1, 150 mM NaCl and 2 nM [^3H]flunitrazepam in the absence or presence of either 5 µM diazepam (to determine unspecific binding) or various concentrations of receptor ligands (dissolved in DMSO, final DMSO-concentration 0.5%). Membranes were filtered through Whatman GF/B filters and washed twice with 4 mL of ice-cold 50 mM Tris/citrate buffer. Filters were transferred to scintillation vials and subjected to scintillation counting after the addition of 3 mL Rotiszint Eco plus liquid scintillation cocktail. Nonlinear regression analysis of the displacement curves used the equation: log(inhibitor) vs. response - variable slope with Top = 100% and Bottom = 0% Y = 100/(1 + 10^((logIC50-x)*Hillslope)).
Another assay has as its target T2, α1β1 GABAA receptors (Rattus norvegicus, UniProt P15431+P62813).
T2 construct: expressed in transfected cells; host or cells: Xenopus laevis oocytes, mRNA injected
Put plainly: Two electrode voltage clamp in Xenopus laevis oocytes, α1β1. It is filed as cell-based. As to conditions: α1β1. An excerpt:
(§2) cDNA’s of rat GABAA receptor subunits α1, α4, β1, β2, β3 and γ2S were cloned as described. cDNAs of the rat subunits α2, α3 and α5 were gifts from P. Malherbe, that of α6 and γ1 were gifts of P. Seeburg and that of δ was a gift of C. Czajkowski. The mutants were constructed using the Q5 Site-Directed Mutagenesis Kit (New England Biolabs) following manufacturer’s instruction. We used the wild-type rat β3-pCI vector as template and the primers […] and […] resulting in a substitution of amino acid N41 (AAC) to R (AGG). We used the wild-type rat β1-pCI vector as template and the primers […] and […] resulting in a substitution of amino acid R41 (CGG) to N (AAC). The mutated subunits were confirmed by sequencing.
(§3) In vitro transcription of mRNA was based on the cDNA expression vectors encoding for rat GABAA receptor subunits α1–6, β1-3, γ1,2, δ and the two β mutants (β1R41N and β3N41R)[40]. After linearizing the cDNA vectors with appropriate restriction endonucleases, the cDNA was purified and concentrated with the DNA Clean and Contentrator ^TM Kit (Zymoresearch, Catalog No. D4005). Capped transcripts of the purified cDNA were produced using the mMESSAGE mMACHINE® T7 transcription kit (Ambion, TX, USA) and polyadenylated using the Ambion PolyA tailing kit (Ambion). After transcription and polyadenylation the RNA was purified with the MEGAclear ^TM Kit (Ambion, Catalog No. AM1908). The final RNA concentration was measured on NanoDrop® ND-1000 and finally diluted and stored in diethylpyrocarbonate-treated water at −80 °C. For the microinjection, the RNA of αβ receptor combinations was mixed at 1:1 ratio (which leads to αβ receptors that consist of predominantly 3 beta and 2 alpha subunits[27]), for αkβlγm (k = 1–3, l = 1, 3, m = 1, 2) receptors at 1:1:5 ratio, for αkβ3γ2 (k = 4–6) and αkβlδ (k = 1, 4 and 6, l = 1, 3) receptor combinations at 3:1:5 ratio.
(§4) Mature female Xenopus laevis (Nasco, WI) were anesthetized in a bath of ice-cold 0.17% Tricain (Ethyl-m-aminobenzoate, Sigma, MO) before decapitation in full accordance with all rules of the Austrian animal protection law (see http://www.ris.bka.gv.at/Dokumente/BgblAuth/BGBLA_2012_I_114/BGBLA_2012_I_114.pdf) and the Austrian animal experiment by-laws (see https://www.ris.bka.gv.at/Dokumente/BgblAuth/BGBLA_2012_II_522/BGBLA_2012_II_522.pdf) which implement the European Directive 2010/63/EU (see http://eur-lex.europa.eu/LexUriServ/LexUriServ.do?uri=OJ:L:2010:276:0033:0079:en:PDF) into the Austrian law (all information accessed on July 27, 2016). The frog’s ovaries were transferred to ND96 medium (96 mM NaCl, 2 mM KCl, 1 mM MgCl2, 5 mM HEPES; pH 7.5). Stage 5–6 oocytes with the follicle cell layer around them were roughly dissected with forceps into packages of 10–15 cells and washed in Ca^2+-free ND96 medium. Cells were then digested with collagenase (type IA, Sigma, NO, 1 mg/mL ND96) at 18 °C shaking at 30 rpm for 30–60 minutes and gently defolliculated with the aid of a glass pipette with appropriate tip diameter and a platinum loop. Defolliculated cells were stored at 18 °C for at least 6 hours in ND96 solution containing penicillin G (10000 IU/100 mL) and streptomycin (10 mg/100 mL) in order to preselect and exclude damaged cells from further treatment. Healthy defolliculated oocytes were injected with an aqueous solution of mRNA. A total of 4.5 ng of mRNA per oocyte was injected with a Nanoject II (Drummond). After injection of mRNA, oocytes were incubated at 18 °C (ND96 + antibiotic) for 2–3 days for αβ receptors and for 3–4 days for αβγ or αβδ receptors before recording. When cells were measured at later time points, oocytes were stored at +4 °C instead of 18 °C.
(§5) For electrophysiological recordings, oocytes were placed on a nylon-grid in a bath of Ca^2+-containing NDE solution medium [96 mM NaCl, 5 mM HEPES-NaOH (pH 7.5), 2 mM KCl, 1 mM MgCl2, 1.8 mM CaCl2].

Another assay has as its target T3, α1β2 GABAA receptors (Rattus norvegicus, UniProt P62813+P63138).
T3 construct: expressed in transfected cells; host or cells: Xenopus laevis oocytes, mRNA injected
Kind of assay: Two electrode voltage clamp in Xenopus laevis oocytes, α1β2. As to conditions: α1β2. It is filed as cell-based.
Excerpt: as §2, §3, §4, §5
In general terms: Two-electrode voltage clamp is typically applied to oocytes expressing channels or transporters.

The target of another assay is T4, α1β3 GABAA receptors (Rattus norvegicus, UniProt P62813+P63079).
T4 construct: expressed in transfected cells; host or cells: Xenopus laevis oocytes, mRNA injected
T4 sequence (P62813 28-455): as the sequence (P62813 28-455) above
T4 sequence (P63079 26-473): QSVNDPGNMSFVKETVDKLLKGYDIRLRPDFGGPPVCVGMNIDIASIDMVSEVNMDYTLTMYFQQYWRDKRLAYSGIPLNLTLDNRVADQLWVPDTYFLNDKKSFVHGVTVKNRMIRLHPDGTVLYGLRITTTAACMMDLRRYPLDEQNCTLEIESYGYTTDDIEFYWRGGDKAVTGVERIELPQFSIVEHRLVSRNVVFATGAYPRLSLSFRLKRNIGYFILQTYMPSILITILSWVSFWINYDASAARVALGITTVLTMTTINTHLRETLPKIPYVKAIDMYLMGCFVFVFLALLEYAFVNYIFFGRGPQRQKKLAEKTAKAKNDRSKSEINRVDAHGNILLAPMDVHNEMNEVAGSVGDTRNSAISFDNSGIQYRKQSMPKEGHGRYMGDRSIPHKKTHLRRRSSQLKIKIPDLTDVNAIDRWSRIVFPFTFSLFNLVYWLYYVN
Kind of assay: Two electrode voltage clamp in Xenopus laevis oocytes, α1β3. As to conditions: α1β3. The assay is classed as cell-based.
Excerpt: as §2, §3, §4, §5

The target in a further assay is T5, α1β3N41R GABAA receptors (Rattus norvegicus, UniProt P62813+P63079, N66R).
T5 construct: expressed in transfected cells; host or cells: Xenopus laevis oocytes, mRNA injected
T5 sequence (P62813 28-455): as the sequence (P62813 28-455) above
T5 sequence (P63079 26-473 N66R): as the sequence (P63079 26-473) above, with N41R counted along it
Kind of assay: Two electrode voltage clamp in Xenopus laevis oocytes, mutant α1β3N41R. It is filed as cell-based.
Excerpt: as §2, §3, §4, §5

A further assay has as its target T6, α1β1R41N GABAA receptors (Rattus norvegicus, UniProt P15431+P62813, R66N).
T6 construct: expressed in transfected cells; host or cells: Xenopus laevis oocytes, mRNA injected
Put plainly: Two electrode voltage clamp in Xenopus laevis oocytes, mutant α1β1R41N. The assay is classed as cell-based.
Excerpt: as §2, §3, §4, §5

T2 sequence (P62813 28-455): as the sequence (P62813 28-455) above
T2 sequence (P15431 26-474): as the sequence (P15431 26-474) above
T6 sequence (P62813 28-455): as the sequence (P62813 28-455) above
T6 sequence (P15431 26-474 R66N): as the sequence (P15431 26-474) above, with R41N counted along it
T3 sequence (P62813 28-455): as the sequence (P62813 28-455) above
T3 sequence (P63138 25-474 limits assumed): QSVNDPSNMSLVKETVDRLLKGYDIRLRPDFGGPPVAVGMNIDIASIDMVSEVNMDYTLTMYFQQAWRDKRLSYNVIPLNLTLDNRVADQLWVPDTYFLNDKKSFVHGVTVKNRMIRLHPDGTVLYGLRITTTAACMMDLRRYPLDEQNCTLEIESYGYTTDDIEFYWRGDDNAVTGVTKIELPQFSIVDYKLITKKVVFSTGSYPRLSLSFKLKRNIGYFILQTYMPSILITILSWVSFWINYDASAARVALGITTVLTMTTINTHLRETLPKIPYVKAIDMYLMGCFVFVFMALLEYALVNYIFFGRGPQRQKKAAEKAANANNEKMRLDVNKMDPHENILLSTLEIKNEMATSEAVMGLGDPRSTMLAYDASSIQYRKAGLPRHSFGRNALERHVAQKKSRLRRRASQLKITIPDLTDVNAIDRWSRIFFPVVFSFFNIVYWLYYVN

Take `Cc1nnc2n1-c1ccc(Cl)cc1C(c1ccccc1Cl)=NC2` [triazolam, Triazolam]: in assay [1], the modulation is on record as over 200%.

As to `CN1C(=O)CN=C(c2ccccc2)c2cc(Cl)ccc21` [diazepam, Diazepam], the modulation in assay [2] is given as ~ 200%.

In assay [3], `O=C(Nc1c(-c2cccs2)nc2ccccn12)c1ccc(Cl)cc1` [DS2] returned a modulation of over 800%.

One may read the Kd as the equilibrium constant for the complex coming apart. Turning to `CN1C(=O)CN=C(c2ccccc2F)c2cc([N+](=O)[O-])ccc21` [[^3H]flunitrazepam], the Kd in [4] came to 4.8 ± 0.3 nM.

On to `NCCCC(=O)O` [GABA, γ-Aminobutyric acid], for which the GABA current amplitude at α1β1 GABAA receptors (100 nM GABA) was determined as 0.1±0.0 µA; on α1β1 GABAA receptors (1 µM GABA) it was 0.7±0.1 µA; at α1β1 GABAA receptors (10 μM GABA) it was 2.2±0.3 µA; at α1β1 GABAA receptors (100 µM GABA), 3.1±0.4 µA; at α1β1 GABAA receptors (1 mM GABA), 4.0±0.5 µA; at α1β2 GABAA receptors (100 nM GABA), 0.0±0.0 µA. Also, the GABA current amplitude worked out at 0.5±0.2 µA on α1β2 GABAA receptors (1 µM GABA); 1.9±0.5 µA on α1β2 GABAA receptors (10 μM GABA); 2.6±0.6 µA at α1β2 GABAA receptors (100 µM GABA); 3.1±0.7 µA at α1β2 GABAA receptors (1 mM GABA); 0.0±0.0 µA at α1β3 GABAA receptors (100 nM GABA); 0.5±0.1 µA at α1β3 GABAA receptors (1 µM GABA). For the same compound, the GABA current amplitude at α1β3 GABAA receptors (10 μM GABA) stood at 1.9±0.3 µA; on α1β3 GABAA receptors (100 µM GABA), 2.7±0.4 µA; at α1β3 GABAA receptors (1 mM GABA), 3.5±0.5 µA; at α1β3N41R GABAA receptors (100 nM GABA), 0.0±0.0 µA; at α1β3N41R GABAA receptors (1 µM GABA), 1.3±0.5 µA; on α1β3N41R GABAA receptors (10 μM GABA), 3.5±0.9 µA. For the same compound, the GABA current amplitude stood at 4.0±1.1 µA at α1β3N41R GABAA receptors (100 µM GABA); 4.1±1.2 µA at α1β3N41R GABAA receptors (1 mM GABA); 0.1±0.0 µA on α1β1R41N GABAA receptors (100 nM GABA); 0.7±0.1 µA at α1β1R41N GABAA receptors (1 µM GABA); 2.3±0.5 µA at α1β1R41N GABAA receptors (10 μM GABA); 2.9±0.7 µA on α1β1R41N GABAA receptors (100 µM GABA). Also, the GABA current amplitude on α1β1R41N GABAA receptors (1 mM GABA) worked out at 2.8±0.8 µA. The “GABA Hill slope (nH)” value is 0.6±0.3 at α1β1 GABAA receptors (GABA dose-response curve); 0.7±0.1 at α1β2 GABAA receptors (GABA dose-response curve); 0.7±0.0 on α1β3 GABAA receptors (GABA dose-response curve); 1.2±0.1 and ~ 1.2 on α1β3N41R GABAA receptors (GABA dose-response curve); 1.2±0.1 and ~ 1.2 at α1β1R41N GABAA receptors (GABA dose-response curve).
